# Values quoted from earlier work as cited in patent US9827309B2, “Treating cancer with a combination of a PD-1 antagonist and dinaciclib” (Merck Sharp & Dohme Corp., priority 2013, dated 2017).
# Conditions: clinical trials; cited from earlier work
compound,measurement,value
"CCc1cnn2c(NCc3ccc[n+]([O-])c3)cc(N3CCCC[C@H]3CCO)nc12 [Dinaciclib, 1-[3-ethyl-7-[[(1-oxido-3-pyridinyl)methyl]amino]pyrazolo[1,5-a]pyrimidin-5-yl]-2(S)-piperidineethanol]",most common dose-limiting toxicity,neutropenia
